Source: ChEMBL document CHEMBL1201862, “PubChem BioAssay data set” (2004)
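Results reflect a 48-hour exposure of cells in 96-well plates to compound at five concentrations. At the GI50, growth is halved.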 Active and inactive are the calls of the source. Cut-off read from the data, not from the text of the source: active = GI50 up to about 1.1 µM and inactive = higher.

Key:
Assay in all cases: DTP human tumour cell line panel, 48 h
786-0 = tested on: 786-0
A498 = tested on: A498
A549 = tested on: A549
ACHN = tested on: ACHN
CAKI-1 = tested on: CAKI-1
CCRF-CEM = tested on: CCRF-CEM
COLO 205 = tested on: COLO 205
DLD-1 = tested on: DLD-1
DMS-114 = tested on: DMS-114
DMS-273 = tested on: DMS-273
EKVX = tested on: EKVX
HCC 2998 = tested on: HCC 2998
HCT-116 = tested on: HCT-116
HCT-15 = tested on: HCT-15
HL-60 = tested on: HL-60
HOP-18 = tested on: HOP-18
HOP-62 = tested on: HOP-62
HOP-92 = tested on: HOP-92
HT-29 = tested on: HT-29
IGROV-1 = tested on: IGROV-1
K562 = tested on: K562
KM-20L2 = tested on: KM-20L2
KM12 = tested on: KM12
LOX IMVI = tested on: LOX IMVI
LXFL 529 = tested on: LXFL 529
M14 = tested on: M14
M19-MEL = tested on: M19-MEL
MOLT-4 = tested on: MOLT-4
Malme-3M = tested on: Malme-3M
NCI-H226 = tested on: NCI-H226
NCI-H23 = tested on: NCI-H23
NCI-H460 = tested on: NCI-H460
NCI-H522 = tested on: NCI-H522
OVCAR-3 = tested on: OVCAR-3
OVCAR-4 = tested on: OVCAR-4
OVCAR-5 = tested on: OVCAR-5
OVCAR-8 = tested on: OVCAR-8
RPMI-8226 = tested on: RPMI-8226
SF-268 = tested on: SF-268
SF-295 = tested on: SF-295
SF-539 = tested on: SF-539
SK-MEL-28 = tested on: SK-MEL-28
SK-MEL-2 = tested on: SK-MEL-2
SK-MEL-5 = tested on: SK-MEL-5
SK-OV-3 = tested on: SK-OV-3
SN12C = tested on: SN12C
SNB-19 = tested on: SNB-19
SNB-78 = tested on: SNB-78
SW-620 = tested on: SW-620
TK-10 = tested on: TK-10
U-251 = tested on: U-251
UACC-257 = tested on: UACC-257
UACC-62 = tested on: UACC-62
UO-31 = tested on: UO-31
XF498 = tested on: XF498

SMILES: O/N=C\C(=N/O)Nc1ccc(Cc2ccc(NC(/C=N\O)=N/O)cc2)cc1
- GI50 (786-0): 58.6 µM (inactive)
- GI50 (A498): 77.4 µM (inactive)
- GI50 (A549): 87.5 µM (inactive)
- GI50 (ACHN): 31.6 µM (inactive)
- GI50 (CAKI-1): 18.8 µM (inactive)
- GI50 (CCRF-CEM): 45.4 µM (inactive)
- GI50 (COLO 205): 54.7 µM (inactive)
- GI50 (DLD-1): 23.9 µM (inactive)
- GI50 (DMS-114): 69.3 µM (inactive)
- GI50 (DMS-273): 43.9 µM (inactive)
- GI50 (EKVX): 25.4 µM (inactive)
- GI50 (HCC 2998): 83.9 µM (inactive)
- GI50 (HCT-116): 79.4 µM (inactive)
- GI50 (HCT-15): 75.3 µM
- GI50 (HL-60): 22.5 µM (inactive)
- GI50 (HOP-18): 37.9 µM (inactive)
- GI50 (HOP-62): 27.4 µM (inactive)
- GI50 (HOP-92): 25.8 µM (inactive)
- GI50 (HT-29): 60.5 µM (inactive)
- GI50 (IGROV-1): 34.4 µM (inactive)
- GI50 (K562): 37.9 µM (inactive)
- GI50 (KM-20L2): 44.3 µM (inactive)
- GI50 (KM12): 54 µM (inactive)
- GI50 (LOX IMVI): 40.6 µM (inactive)
- GI50 (LXFL 529): 39.4 µM (inactive)
- GI50 (M14): 27.5 µM (inactive)
- GI50 (M19-MEL): 47 µM (inactive)
- GI50 (MOLT-4): 30.8 µM (inactive)
- GI50 (Malme-3M): 24.7 µM (inactive)
- GI50 (NCI-H226): 18.1 µM (inactive)
- GI50 (NCI-H23): 55.5 µM (inactive)
- GI50 (NCI-H460): 34.8 µM (inactive)
- GI50 (NCI-H522): 29.6 µM (inactive)
- GI50 (OVCAR-3): 42.3 µM (inactive)
- GI50 (OVCAR-4): 57.9 µM (inactive)
- GI50 (OVCAR-5): 89.9 µM (inactive)
- GI50 (OVCAR-8): 36.1 µM (inactive)
- GI50 (RPMI-8226): 30.5 µM (inactive)
- GI50 (SF-268): > 100 µM (inactive)
- GI50 (SF-295): 21.7 µM (inactive)
- GI50 (SF-539): 45.2 µM (inactive)
- GI50 (SK-MEL-28): > 100 µM (inactive)
- GI50 (SK-MEL-2): 50.7 µM (inactive)
- GI50 (SK-MEL-5): 48.3 µM (inactive)
- GI50 (SK-OV-3): 33.2 µM (inactive)
- GI50 (SN12C): 35.3 µM (inactive)
- GI50 (SNB-19): 97.9 µM (inactive)
- GI50 (SNB-78): > 100 µM (inactive)
- GI50 (SW-620): 52.1 µM (inactive)
- GI50 (TK-10): 45.2 µM (inactive)
- GI50 (U-251): 37.5 µM (inactive)
- GI50 (UACC-257): 56.1 µM (inactive)
- GI50 (UACC-62): 21.2 µM (inactive)
- GI50 (UO-31): 13.2 µM (inactive)
- GI50 (XF498): 71.3 µM (inactive)
